# Publication PMC7096528, “Crystal structure of pathogenic Staphylococcus aureus lipase complex with the anti-obesity drug orlistat” (Scientific Reports, 2020)
# B1: Staphylococcus aureus lipase (SAL), native, mature form (enzyme)
# chain: ANQVQPLNKYPVVFVHGFLGLVGDNAPALYPNYWGGNKFKVIEELRKQGYNVHQASVSAFGSNYDRAVELYYYIKGGRVDYGAAHAAKYGHERYGKTYKGIMPNWEPGKKVHLVGHSMGGQTIRLMEEFLRNGNKEEIAYHKAHGGEISPLFTGGHNNMVASITTLATPHNGSQAADKFGNTEAVRKIMFALNRFMGNKYSNIDLGLTQWGFKQLPNESYIDYIKRVSKSKIWTSDDNAAYDLTLDGSAKLNNMTSMNPNITYTTYTGVSSHTGPLGYENPDLGTFFLMATTSRIIGHDAREEWRKNDGVVPVISSLHPSNQPFVNVTNDEPATRRGIWQVKPIIQGWDHVDFIGVDFLDFKRKGAELANFYTGIINDLLRVEATESKGTQLKAS
# notes: Staphylococcus aureus lipase (glycerol ester hydrolase), mature form of 394 residues processed from the prepolypeptide of 690 residues; numbers count on: the mature protein; Residues 4-385 are visible in the crystal; The pCold II vector is surmised to add the His tag at the N-terminus; also called SA lipase; glycerol ester hydrolase; source: E. coli, purified (three-step chromatography, …)
# Tests used:
# [1] = target: T1, Staphylococcus aureus lipase (SAL, glycerol ester hydrolase) (Staphylococcus aureus, UniProt A0A0U1MWF9); test: co-crystal structure at […] Å; IC50 from purified-enzyme p-nitrophenyl butyrate hydrolysis assay; assay type: biochemical
# T1 construct: gene lip; mature form containing 394 amino acid residues (recombinant, His-tagged; residues 4–385 determined in the native structure)
# T1 sequence (A0A0U1MWF9 entry or part of it): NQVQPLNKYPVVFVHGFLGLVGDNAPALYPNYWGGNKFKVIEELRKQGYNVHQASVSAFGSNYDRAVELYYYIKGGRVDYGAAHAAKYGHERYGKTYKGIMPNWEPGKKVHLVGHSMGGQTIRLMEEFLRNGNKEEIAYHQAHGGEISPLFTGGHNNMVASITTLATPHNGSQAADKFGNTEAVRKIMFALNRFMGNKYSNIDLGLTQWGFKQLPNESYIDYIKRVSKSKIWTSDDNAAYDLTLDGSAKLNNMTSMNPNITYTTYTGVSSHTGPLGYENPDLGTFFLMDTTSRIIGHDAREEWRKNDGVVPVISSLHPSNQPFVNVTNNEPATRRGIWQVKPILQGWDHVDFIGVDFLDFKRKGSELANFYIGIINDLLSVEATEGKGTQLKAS
# [2] = target: the molecule itself; test: SEC; Superdex 200 Increase 10/300 GL, 10 mg/mL SAL injected at 20 °C, 50 mM Tris-HCl pH 7.5, 0.2 M NaCl, 0.5 ml/min, BSA as standard for calibration
Molecule,IC50 [1],stoichiometry N [2]
CCCCCCCCCCC[C@@H](C[C@@H]1OC(=O)[C@H]1CCCCCC)OC(=O)[C@H](CC(C)C)NC=O [orlistat],2400 nM,
B1,,2
